# Data from article PMC6151456, “Screening a Natural Product-Based Library against Kinetoplastid Parasites” (Molecules : A Journal of Synthetic Chemistry and Natural …, 2017).
# Read-outs that look alike come from different tables or passages of the source.
# Key:
# HEK-293 cells = assay: HEK-293 resazurin viability assay (cytotoxicity, selectivity); assay type: cell-based, human
# Protocol: (§1) Primary screening against T. b. brucei was undertaken at 5 µM and for T. cruzi at 10 µM final concentrations.
# Cytotoxicity testing was undertaken as previously described.
# [1] = system: L. donovani DD8 intracellular amastigotes; assay: L. donovani DD8 intracellular amastigote high content imaging assay; assay type: cell-based, Leishmania donovani; conditions: 14 point dose response, top 20 µM
# Protocol: (§2) For the primary screen, compounds were prepared as a stock concentration of 5 mM in 100% DMSO and tested in duplicate points for two independent experiments (n = 2) at final assay concentrations of 20 µM and 16.7 µM for the L. donovani intracellular amastigote and promastigote viability assays, respectively. Primary screening against T. b. brucei was undertaken at 5 µM and for T. cruzi at 10 µM final concentrations. […] These compounds were then retested in a 14 point format to determine the IC50 value against the parasite, and against HEK-293, THP-1 and 3T3 cells to determine the selectivity to the parasite. […] A top dose of 20 µM was used in the T. b. brucei assay and 18.3 µM for T.cruzi assay, in 14 point dose repsonse curves as described.
# A high content, high-throughput imaging assay was used to identify compounds active against L. donovani DD8 intracellular amastigotes as described previosuly.
# THP-1 cells = assay: THP-1 cytotoxicity (selectivity); assay type: cell-based, human
# Protocol: as §2
# [2] = system: L. donovani DD8 promastigotes; assay: L. donovani DD8 promastigote viability assay (resazurin); assay type: cell-based, Leishmania donovani; conditions: for IC50: 14 point dose response, top 16.7 µM
# Protocol: as §2
# This assay was established to assess the activity of the compound library on the extracellular form of the parasites. An initial cell density of 1 × 10^5 parasites/mL was inoculated into a 75 cm^2 flask (in a total of 30 mL of M199 medium + 10% (v/v) HIFBS) and incubated at 27 °C. After 96 h the parasites reached the mid-log phase and were seeded in black, clear bottom 384-well plates (Greiner-bio-one®, Monroe, UT, USA) at a concentration of 5 × 10^5 parasites/mL in a volume of 55 µL using a Bravo automated liquid handling platform (Agilent, Santa Clara, CA, USA). Compound stocks were diluted 1:25 in M199 media without HIFBS using a dilution plate (Greiner-bio-one®, Monroe, UT, USA). The compounds were dispensed in 5 µL using a Bravo and parasites incubated for an additional 68 h at 27 °C. Resazurin (Cayman Chemicals®, Ann Arbor, MI, USA) at 0.142 mM final assay concentration was then dispensed into plates at a volume of 10 µL/well using a Multidrop™ 384 Reagent Dispenser (Thermo Scientific®, Newington, NH, USA) and incubated at 27 °C. The plates were read after 4 h on an EnVision™ Multilabel plate reader (PerkinElmer, Waltham, MA, USA) using fluorometry with an excitation of 530 nm and emission 590 nm. For the L. donovani DD8 promastigote viability assay, 1 µM of amphotericin B was used as positive control and 0.4% DMSO as negative control.
# [3] = system: T. cruzi intracellular amastigotes; assay: T. cruzi intracellular amastigote image-based assay; assay type: cell-based, Trypanosoma cruzi; conditions: for IC50: n = 2, top 18.3 µM
# Protocol: as §2
# (§3) The efficacy of compounds against T. cruzi was undertaken using a phenotypic, high-throughput image-based assay as previously described.
# 3T3 host cells = assay: 3T3 host cell cytotoxicity (selectivity); assay type: cell-based, mouse; conditions: relative to T. cruzi
# Protocol: as §1, §3
# [4] = system: T. b. brucei bloodstream form strain 427; assay: T. b. brucei resazurin viability assay; assay type: cell-based, Trypanosoma brucei brucei
# Protocol: as §2
# The efficacy of compounds against T. b. brucei bloodstream form was evaluated using a resazurin-based assay, previously described in the literature.
# P. falciparum (Dd2) = conditions: cited from earlier work
# P. falciparum (3D7) = conditions: cited from earlier work
# L. donovani amastigotes = system: L. donovani amastigotes; parameters: method as in PMID 22720099; conditions: previously reported; read-out: IC50, amastigote assay; cited from earlier work
# [5] = relative to L. donovani DD8 intracellular amastigotes
# [6] = relative to L. donovani DD8 promastigotes
# [7] = Leishmania donovani, n = 2, read-out: IC50 (mean ± SD), L. donovani DD8 intracellular amastigotes
# [8] = Leishmania donovani, n = 2, read-out: IC50 (mean ± SD), L. donovani DD8 promastigotes
# [9] = Trypanosoma cruzi, intracellular amastigotes, read-out: IC50 (mean ± SD), T. cruzi
# [10] = Leishmania donovani, read-out: IC50 (mean ± SD), L. donovani DD8 intracellular amastigotes, n = 2
# [11] = Trypanosoma brucei, n = 2, 14 point dose response, top 20 µM, read-out: IC50 (mean ± SD), T. b. brucei
# [12] = Leishmania donovani, at 16.7 µM
# [13] = n = 2, 14 point dose response, top 20 µM, read-out: IC50 (mean ± SD), T. b. brucei
# [14] = Trypanosoma brucei, reference compounds, read-out: IC50, T. b. brucei
Molecule,Selectivity index (SI) compared to HEK-293 cells (HEK-293 cells; [5]),Selectivity index (SI) compared to THP-1 cells (THP-1 cells; [5]),Selectivity index (SI) compared to HEK-293 cells (HEK-293 cells; relative to T. cruzi),"IC50 [3, 9] [nM]",Selectivity index (SI) compared to 3T3 cells (3T3 host cells),Selectivity index (SI) compared to HEK-293 cells (HEK-293 cells; relative to T. b. brucei),"IC50 [4, 11] [nM]",also measured
"C[C@@H]1[C@H](O)[C@@H](C)/C=C/C=C/C=C/C=C/C=C/C=C/C=C/[C@H](O[C@@H]2O[C@H](C)[C@@H](O)[C@H](N)[C@@H]2O)C[C@@H]2O[C@](O)(C[C@@H](O)C[C@@H](O)[C@H](O)CC[C@@H](O)C[C@@H](O)CC(=O)O[C@H]1C)C[C@H](O)[C@H]2C(=O)O [Amphotericin B, reference compound]",> 41.65,> 9.61,–,–,–,–,–,"Selectivity index (SI) compared to HEK-293 cells (HEK-293 cells; [6]): > 68.27; IC50 [1, 7]: 200 ± 20 nM; Selectivity index (SI) compared to THP-1 cells (THP-1 cells; [6]): > 16.39; IC50 [2, 8]: 120 ± 10 nM"
"O=C(Cn1ccnc1[N+](=O)[O-])NCc1ccccc1 [Benznidazole, reference compound]",–,–,> 44.84,3360 ± 1520,–,–,–,–
"COc1c(OC)c2c(c(CCN(C)C)c1SC)Sc1c(CCN(C)C)c(SC)c(OC)c(OC)c1S2 [Compound 1, Lissoclinotoxin E]",> 2.26,1.13,> 2.52,–,> 4.67,> 17.68,–,"Selectivity index (SI) compared to HEK-293 cells (HEK-293 cells; [6]): > 11.72; IC50 [1, 10]: < 5000 nM; IC50 ([1]; read-out: IC50 (mean ± SD), L. donovani DD8 intracellular amastigotes, n = 2, listed as Lissoclinotoxin E (1)): 4410 ± 240 nM; IC50 ([3]; Trypanosoma cruzi, read-out: IC50 (mean ± SD), T. cruzi, intracellular amastigotes): < 5000 nM; IC50 ([3]; read-out: IC50 (mean ± SD), T. cruzi, intracellular amastigotes, listed as Lissoclinotoxin E (1)): 3920 ± 380 nM; Selectivity index (SI) compared to THP-1 cells (THP-1 cells; [6]): 6.88"
"CC(C)=CCC[C@]1(C)C=Cc2c(O)c3c(c(CC=C(C)C)c2O1)O[C@]12C(=C[C@@H]4C[C@H]1C(C)(C)O[C@@]2(C/C=C(/C)C(=O)O)C4=O)C3=O [Compound 4, Gambogic acid]",–,–,1.50,1870 ± 70,1.00,7.11,270 ± 40,"inhibition at 16.7 µM [2, 12]: 100%"
"COc1c(C)c2c(c(O)c1C/C=C(\C)CCC(=O)O)C(=O)OC2 [Compound 5, Mycophenolic acid, reference compound]",–,–,0.37,1590 ± 30,0.13,1.01,510 ± 100,–
"O=C1N[C@@H]2C(=C[C@H](O)[C@@H](O)[C@H]2O)c2cc3c(c(O)c21)OCO3 [Compound 6, Narciclasine]",–,–,0.21,–,3.28,1.09,–,"IC50 [4, 13]: 30 ± 10 nM; IC50 ([3]; intracellular amastigotes, read-out: IC50 (mean ± SD), T. cruzi): 200 ± 10 nM; inhibition of L. donovani DD8 promastigotes ([2]; at 16.7 µM): 100% inhibition at 16.7 µM"
"Cc1ccc(S(=O)(=O)n2ccc3c2C(=O)C2=C(NCCS2(=O)=O)C3=O)cc1 [Compound 7, 6-tosyl-2,3-dihydro-[1, 4]thiazino[3,2-f]indole-5,9(1H,6H)-dione 4,4-dioxide]",–,–,1.46,3550 ± 380,1.33,4.19,680 ± 10,"IC50 (P. falciparum (Dd2); read-out: IC50, Dd2 strain of P. falciparum): 509 ± 30.9 nM; IC50 (P. falciparum (3D7); read-out: IC50, 3D7 strain of P. falciparum): 546 ± 119 nM"
"O=C1C2=C(C(=O)c3ccccc31)S(=O)(=O)CCN2 [Compound 9, 3,4-dihydro-2H-naphtho[2,3-b][1,4]thiazine-5,10-dione 1,1-dioxide]",–,–,1.11,3820 ± 610,1.24,–,–,"IC50 ([3]; intracellular amastigotes, listed as 3,4-Dihydro-2H-naphtho[2,3-b]-[1,4] thiazine-5,10-dione 1,1-dioxide (9), read-out: IC50 (mean ± SD), T. cruzi): 3810 ± 600 nM; inhibition at 16.7 µM [2, 12]: 100%"
"COc1c(SC)c(CCN(C)C)c2sc3c(CCN(C)C)c(SC)c(OC)c(OC)c3ssc2c1OC [Compound 11, Lissoclinotoxin F]",> 2.40,> 1.20,–,–,–,–,–,"Selectivity index (SI) compared to HEK-293 cells (HEK-293 cells; [6]): > 3.62; IC50 [1, 10]: 8310 ± 670 nM; Selectivity index (SI) compared to THP-1 cells (THP-1 cells; [6]): > 1.81; IC50 ([2]; Leishmania donovani, read-out: IC50 (mean ± SD), L. donovani DD8 promastigotes, n = 2): 5510 ± 300 nM"
"CCOC(=O)c1c(C)n(-c2ccc(OC)cc2)c2ccc(O)c(CN(CC)CC)c12 [Compound 12, ethyl 4-((diethylamino)methyl)-5-hydroxy-1-(4-methoxyphenyl)-2-methyl-1H-indole-3-carboxylate]",> 2.97,> 1.50,–,–,–,–,–,"activity against T. b. brucei [4]: no significant activity; IC50 [1, 7]: 11100 ± 310 nM; activity against T. cruzi [3]: no significant activity; inhibition at 16.7 µM [2, 12]: 100%"
N=C(N)c1ccc(/N=N/Nc2ccc(C(=N)N)cc2)cc1 [Diminazene],–,–,–,–,–,> 962.75,40 ± 10,"IC50 [4, 14]: 40.5 ± 12.8 nM"
"CCCCCCCCCCCCCCCCOP(=O)([O-])OCC[N+](C)(C)C [Miltefosine, reference compound]",> 13.12,> 7.27,–,–,–,–,–,"Selectivity index (SI) compared to HEK-293 cells (HEK-293 cells; [6]): > 9.57; IC50 [1, 7]: 2540 ± 570 nM; Selectivity index (SI) compared to THP-1 cells (THP-1 cells; [6]): > 5.74; IC50 (L. donovani amastigotes): 3100 ± 2300 nM; IC50 [2, 8]: 3480 ± 260 nM"
"CC1CS(=O)(=O)CCN1/N=C/c1ccc([N+](=O)[O-])o1 (stereo not shown) [Nifurtimox, reference compound]",–,–,> 243.03,620 ± 100,–,–,–,–
N=C(N)c1ccc(OCCCCCOc2ccc(C(=N)N)cc2)cc1 [Pentamidine],–,–,–,–,–,> 334.52,2 ± 1,"IC50 [4, 14]: 2.86 ± 1.46 nM"
"COc1ccc(C[C@H](N)C(=O)N[C@H]2[C@@H](O)[C@H](n3cnc4c(N(C)C)ncnc43)O[C@@H]2CO)cc1 [Puromycin, reference compound]",–,–,0.150,1650 ± 350,–,12.96,30,"IC50 [4, 14]: 39 ± 6.09 nM"
Psammaplysin F [Compound 14],–,–,> 3.51,–,> 1.90,–,–,"IC50 ([3]; intracellular amastigotes, listed as Psammaplysin F (14), read-out: IC50 (mean ± SD), T. cruzi): 5630 ± 760 nM; IC50 (P. falciparum (Dd2); read-out: IC50, P. falciparum Dd2): 1400 nM; IC50 (P. falciparum (3D7); read-out: IC50, P. falciparum 3D7): 870 nM"
Spermatinamine [Compound 2],0.64,0.80,–,–,–,5.89,–,"IC50 [4, 13]: 1000 ± 260 nM; Selectivity index (SI) compared to HEK-293 cells (HEK-293 cells; [6]): 0.33; IC50 ([1]; n = 2, read-out: IC50 (mean ± SD), L. donovani DD8 intracellular amastigotes): 6150 ± 50 nM; Selectivity index (SI) compared to THP-1 cells (THP-1 cells; [6]): 0.41; IC50 ([2]; n = 2, read-out: IC50 (mean ± SD), L. donovani DD8 promastigotes): 11900 ± 560 nM; IC50 (P. falciparum (3D7); read-out: antimalarial IC50, P. falciparum (3D7)): 230 nM"
